For two compounds, IC50 and Kd results are on record in patent publication US20260048045A1, “PI3K-ALPHA INHIBITORS FOR THE TREATMENT OF CANCER” (Scorpion Therapeutics, Inc., priority 2022, published 2026).

Assay [1] deals with pAKT (S473) in T47D.1 cells, PI3Kα H1047R mutation present. The assay can be described thus: HTRF pAKT-T47D cell assay. In kind it is cell-based. The conditions noted are these: RPMI+10% FBS+0.2 units/mL bovine insulin. The procedure:
Compounds A and B were assayed using homogeneous time-resolved fluorescence (HTRF).
Gibco RPMI 1640 Medium, no phenol red; Gibco RPMI 1640 Medium; Gibco Trypsin-EDTA (0.5%), no phenol red; Gibco DPBS; Trypan blue solution 0.4% (Corning); Avantor Seradigm Premium Grade Fetal Bovine Serum (FBS); Greiner 784080-384 well TC treated white plates; pAKT (Ser473) HTRF; Gibco Insulin, human recombinant, zinc solution; Gibco Recovery Cell Culture Freezing Medium; Countess II FL Automated Cell Counter (ThermoFisher); Countess II Slides (ThermoFisher); Microscope; and PHERAstar FSX Microplate Reader (BMG LABTECH, Inc.).
The cell line ID was T47D.1, the HTRF detection was pAKT (S473), a PI3Kα H1047R mutation was present, the seeding density was 5000, the timepoint was 1 hour, and the medium used was RPMI+10% FBS (no phenol red)+0.2 units/mL bovine insulin.
• The cell density was not permitted to reach 100% confluence. The cells were split 1.5 when they reached ˜80% confluence. • Cells were split twice a week (Mon and Fri). • Cells over passage 18 were not used (˜2 months of maintenance). • Antibiotics were not used for tissue culture maintenance or assays.
The procedure was as follows: • 1. Prepared ARP: • a. Stamped 12.5 nL from 10 mM source plate to destination plate using Echo. Sealed plate immediately and froze at −20° C. if it was not used on the same day. • b. If a frozen ARP was used, the plate was thawed and spun at 1000 rpm×1 min. • 2. Preparation of cells (adherent): • a. Aspirated media from cells. Washed cells with sterile 1×PBS. Aspirated PBS and added appropriate amount of Trypsin. • b. Once cells were fully trypsinized, added appropriate media to resuspend cells. Transferred cells to a 15 mL or 50 mL conical tube. • c. Counted cells on the Countess II Cell Counter. • 3. Plating of cells: • a. […] Calculated the amount of HTRF antibody master mix needed to perform the desired experiments plus any extra dead volume required for dispensing (4 mL required per well). […]
• 6. Measured on the PHERAstar/Envision using the HTRF protocol. When plates were read, all wells were read.

Assay [2] has as its target T1, PI3Kα H1047R (full-length p110-α H1047R complexed with truncated p85-α, residues 322-694) + wortmannin (Homo sapiens, UniProt P42336, H1047R).
T1 construct: The protein contained a full-length p110-α subunit harboring the H1047R mutation with an N-terminal AviTag
The assay can be described thus: Surface Plasmon Resonance (SPR) binding, Biacore 8K, ATP site blocked with wortmannin. The settings on record: multi-cycle kinetics, 25° C., protein pre-incubated with 1 μM wortmannin. Here is the method:
SPR experiments were performed on a Biacore 8K instrument. A biotinylated recombinant PI3Kα H1047R protein was used in this study. The protein contained a full-length p110-α subunit harboring the H1047R mutation with an N-terminal AviTag, complexed with a truncated p85-α subunit (amino acid residues 322-694). The protein was first incubated with 1 μM wortmannin for 30 min at RT to covalently block the ATP binding site, then immobilized onto a streptavidin sensor chip by flowing the protein through the sensor chip at typically 20 μg/mL concentration and 2 μL/min flow rate for 1200 seconds. Compound binding affinities were measured in the multi-cycle kinetics mode, at 90 μL/min flow rate with 90 seconds association time and 240 seconds dissociation time. The running buffer contained 50 mM Tris, pH 7.5, 150 mMNaCl, 0.01% Brij35, 1 mM DTT, 1 mM MgCl2, 0.05% Tween-20 and 2% DMSO. Temperature was maintained at 25° C. during experiments. SPR can also be utilized to study competition between Compounds A and B, i.e., by measuring the binding of Compound A in the presence and absence of Compound B, and by measuring the binding of Compound B in the presence and absence of Compound A.

pIC50, pKd: −log10 of the molar value.

T1 sequence (P42336 whole entry H1047R, the tested form may be a part): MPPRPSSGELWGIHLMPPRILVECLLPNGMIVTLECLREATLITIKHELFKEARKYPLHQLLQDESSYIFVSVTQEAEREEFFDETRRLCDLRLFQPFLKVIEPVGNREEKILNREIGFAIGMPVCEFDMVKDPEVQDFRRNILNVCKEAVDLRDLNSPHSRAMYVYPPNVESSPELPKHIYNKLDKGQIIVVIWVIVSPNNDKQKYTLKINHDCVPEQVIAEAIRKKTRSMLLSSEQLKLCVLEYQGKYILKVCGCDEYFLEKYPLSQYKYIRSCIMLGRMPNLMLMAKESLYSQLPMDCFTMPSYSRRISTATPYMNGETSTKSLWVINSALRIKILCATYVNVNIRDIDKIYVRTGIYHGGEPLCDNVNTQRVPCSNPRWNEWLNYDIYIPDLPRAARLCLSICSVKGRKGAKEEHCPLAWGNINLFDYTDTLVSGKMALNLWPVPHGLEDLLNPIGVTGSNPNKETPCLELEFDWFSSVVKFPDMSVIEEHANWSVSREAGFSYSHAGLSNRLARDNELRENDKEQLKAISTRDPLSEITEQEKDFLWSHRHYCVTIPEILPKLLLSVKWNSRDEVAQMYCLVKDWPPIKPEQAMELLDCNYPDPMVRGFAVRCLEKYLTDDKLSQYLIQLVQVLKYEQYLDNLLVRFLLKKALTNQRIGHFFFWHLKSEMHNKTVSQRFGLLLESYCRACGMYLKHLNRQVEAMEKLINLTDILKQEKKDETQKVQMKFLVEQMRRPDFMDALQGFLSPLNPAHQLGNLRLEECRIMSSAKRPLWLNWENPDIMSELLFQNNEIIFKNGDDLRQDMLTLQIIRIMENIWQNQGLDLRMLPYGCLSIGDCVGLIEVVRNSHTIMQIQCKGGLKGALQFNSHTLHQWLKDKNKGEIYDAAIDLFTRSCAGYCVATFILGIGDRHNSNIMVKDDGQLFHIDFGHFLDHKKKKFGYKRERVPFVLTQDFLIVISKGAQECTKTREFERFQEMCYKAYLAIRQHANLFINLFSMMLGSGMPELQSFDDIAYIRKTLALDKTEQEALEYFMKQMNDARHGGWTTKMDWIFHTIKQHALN
T1 sequence (P27986 322-694 partner limits assumed): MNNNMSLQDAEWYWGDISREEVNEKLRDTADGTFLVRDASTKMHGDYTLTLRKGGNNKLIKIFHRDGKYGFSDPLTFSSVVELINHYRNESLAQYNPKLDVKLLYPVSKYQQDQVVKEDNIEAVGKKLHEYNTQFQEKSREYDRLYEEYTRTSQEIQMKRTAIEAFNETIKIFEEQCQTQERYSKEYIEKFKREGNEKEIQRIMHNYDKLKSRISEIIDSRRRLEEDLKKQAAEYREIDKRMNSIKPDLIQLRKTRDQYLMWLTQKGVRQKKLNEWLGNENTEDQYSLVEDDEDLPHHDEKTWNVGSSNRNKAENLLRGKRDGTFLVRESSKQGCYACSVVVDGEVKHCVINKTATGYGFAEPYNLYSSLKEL

With `Cc1c([C@@H](NC(=O)Nc2cncc(C(=O)N(C)C)c2)C(C)C)oc2ccc(F)cc12` [Compound A, (S)-5-(3-(1-(5-fluoro-3-methylbenzofuran-2-yl)-2-methylpropyl)ureido)-N,N-dimethylnicotinamide], the pIC50 is 6.22 in assay [1] (1 hour) and 6.34 in assay [1] (Homo sapiens, T47D, 1 h). Besides, in assay [2], the pKd was 7.42.

Compound `Cc1c([C@@H](Nc2nc3ccc(C(N)=O)cc3[nH]2)C(C)C)oc2ccc(F)cc12` [Compound B, (S)-2-((1-(5-fluoro-3-methylbenzofuran-2-yl)-2-methylpropyl)amino)-1H-benzo[d]imidazole-6-carboxamide] had a negative logarithm of the IC50 (pIC50) in assay [1] (Homo sapiens, T47D, 1 h) of 6.67. Besides, the pKd in assay [2] was 8.07.
